Molecules are shown by their SMILES.

What all share (type): physicochemical
A short description of data set [1]: Short-term static storage stability of the solid (XRPD, HPLC). As to the method:
Purity analysis was performed on an Agilent HP1100/Infinity 111260 series system equipped with a diode array detector and using OpenLAB software. The full method details are provided below.
For short-term (8 days or fewer) stability experiments, solid material was placed into open vials at elevated storage conditions, unless otherwise stated. These conditions were achieved using saturated salt solutions at specific temperatures within sealed containers. Storage containers were pre-equilibrated prior to input of samples.

Data set [2] can be described thus: Polymorph screening with liquid assisted grinding (LAG), XRPD outcome. As to the method:
30 mg of amorphous 5-(3,4-difluorobenzyl)-8-((1r,4r)-4-methylcyclohexyl)-6,9-dioxo-2,5,8-triazaspirol[3.5]nonane-2-carbaldehyde was wetted with solvent (5 μL). Two grinding beads (3 mm diameter) were added and the samples were ground for 2 hours at 500 rpm using a planetary Fritsch Mill (Pulverisette 6). After grinding all solids were analysed by XRPD.
Gums were stored at ambient conditions. Gums and samples containing brittle material were dried in-vacuo at R. T. in a vacuum oven overnight (ca. 200 mbar). Observations were recorded and the samples were further dried in-vacuo at R. T. in a vacuum oven overnight (ca. 5 mbar). Where gums still persisted, the samples were further dried in-vacuo at R. T. in a vacuum oven (ca. 5 mbar) for 3 days. The observations and XRPD analysis are provided in Table 5-G. Further treatment details of gums and brittle materials are summarized in Table 5-H.

A short description of data set [3]: Competitive slurry experiments between Form I and Form II. The conditions noted are these: competitive slurry. The source says:
The results of the competitive slurry experiments are provided below in Table 6.

[4] abbreviates: Storage at 40° C./75% RH for 7 days.

Consider `C1COCCO1.C[C@H]1CC[C@H](N2CC(=O)N(Cc3ccc(F)c(F)c3)C3(CN(C=O)C3)C2=O)CC1` [Form III, 5-(3,4-difluorobenzyl)-8-((1r,4r)-4-methylcyclohexyl)-6,9-dioxo-2,5,8-triazaspiro[3.5]nonane-2-carbaldehyde 1,4-dioxane solvate], for which the XRPD result in data set [1] (setting [4]) was “converted to crystalline Form II”.

As for `C[C@H]1CC[C@H](N2CC(=O)N(Cc3ccc(F)c(F)c3)C3(CN(C=O)C3)C2=O)CC1`, the XRPD entry was “Form II” in data set [2] (LAG gum/brittle material after drying in-vacuo, solvent EtOH/water 97:3 v/v); “Form II” in data set [2] (LAG of amorphous material, solvent 1,4-dioxane/water 99:1 v/v); “Form I” in data set [2] (LAG of amorphous material, solvent 1-PrOH/water 98:2 v/v); “Form II” in data set [2] (LAG of amorphous material, solvent 15% v/v water in 1-PrOH); “Form II” in data set [2] (LAG of amorphous material, solvent 15% v/v water in 2-PrOH); “Form I” in data set [2] (LAG of amorphous material, solvent 15% v/v water in DMSO). In addition, the XRPD result in data set [2] (LAG of amorphous material, solvent 15% v/v water in EtOH) is “Form II”; in data set [2] (LAG of amorphous material, solvent 15% v/v water in MeOH), “Form II”; in data set [2] (LAG of amorphous material, solvent 15% v/v water in acetone) it was “Form I”; in data set [2] (LAG of amorphous material, solvent 50% v/v water in 1-PrOH), “Form II”; in data set [2] (LAG of amorphous material, solvent 50% v/v water in DMSO), “Form I”; in data set [2] (LAG of amorphous material, solvent 50% v/v water in EtOH), “Form I”. Moreover, the XRPD result is “Amorphous” in data set [2] (LAG of amorphous material, solvent 50% v/v water in acetone); “Form I” in data set [2] (LAG of amorphous material, solvent 80% v/v water in 2-BuOH); “Form I” in data set [2] (LAG of amorphous material, solvent 85% v/v water in 2-PrOH); “Amorphous” in data set [2] (LAG of amorphous material, solvent 85% v/v water in acetone); “Form I” in data set [2] (LAG of amorphous material, solvent 95% v/v water in 2-BuOH); “Form II” in data set [2] (LAG of amorphous material, solvent Acetone/water 99:1 v/v). In addition, the XRPD entry in data set [2] (LAG of amorphous material, solvent Acetonitrile/water 1:1 v/v) is recorded as “Form II”; in data set [2] (LAG of amorphous material, solvent MeOH/water 97:3 v/v) it was “Form II”.

As for `C[C@H]1CC[C@H](N2CC(=O)N(Cc3ccc(F)c(F)c3)C3(CN(C=O)C3)C2=O)CC1` [Forms I and II], the XRPD result is given as “Form II” in data set [3] (EtOAc, 5 °C); “Form II” in data set [3] (EtOAc/cyclohexane (50:50 v/v), 5 °C); “Form II” in data set [3] (EtOAc/cyclohexane (50:50 v/v), 50 °C); “Form II” in data set [3] (EtOAc/cyclohexane (85:15 v/v), 5 °C); “Form II” in data set [3] (EtOAc/cyclohexane (85:15 v/v), 50 °C); “Form II” in data set [3] (EtOH, 5 °C). For the same compound, the XRPD result in data set [3] (EtOH, 50 °C) is “Form II”; in data set [3] (EtOH/water (15/85 v/v), 50 °C), “Form II”; in data set [3] (EtOH/water (85:15 v/v), 50 °C), “Form II”; in data set [3] (MIBK, 5 °C), “Form II”; in data set [3] (MIBK, 50 °C) it was “Form II”; in data set [3] (Toluene, 50 °C) it was “Form II”. Also, the XRPD entry is reported as “Form II” in data set [3] (acetonitrile, 5 °C) and “Form II” in data set [3] (acetonitrile, 50 °C).

As to `C[C@H]1CC[C@H](N2CC(=O)N(Cc3ccc(F)c(F)c3)C3(CN(C=O)C3)C2=O)CC1` [Form I, 5-(3,4-difluorobenzyl)-8-((1r,4r)-4-methylcyclohexyl)-6,9-dioxo-2,5,8-triazaspiro[3.5]nonane-2-carbaldehyde], the HPLC purity in data set [1] (Before Storage) was found to be 96.3%. Besides, the XRPD entry was “Form I” in data set [1] (Before Storage), “Unchanged by XRPD” in data set [1] (Storage at 25° C./97% RH for 7 days) and “Unchanged by XRPD” in data set [1] (setting [4]).

These data come from patent publication US20240132498A1, “CRYSTALLINE FORMS OF 5-(3,4-DIFLUOROBENZYL)-8-((1R,4R)-4-METHYLCYCLOHEXYL)-6,9-DIOXO-2,5,8-TRIAZASPIRO[3.5]NONANE-2-CARBALDEHYDE” (Cytokinetics, Incorporated, priority 2022, published 2024).
